Earlier results, collected in patent US20260092327A1, “METHODS OF MONITORING MUTATIONS IN TREATMENT OF COLORECTAL CANCER” (Cardiff Oncology, Inc., priority 2022, published 2026).

How the values were obtained:
[1] = system: HCT-116 KRAS-mutant CRC xenograft; conditions: HCT-116 KRAS-mutant CRC xenograft model
PLK1 = PLK1 (Homo sapiens, UniProt P53350); conditions: among a panel of 296 kinases, including other PLK members
[2] = system: advanced/metastatic solid tumors
[3] = system: cell lines from solid and hematologic tumors; conditions: large number of cell lines
[4] = system: disseminated model of AML
[5] = system: HT29 human colon adenocarcinoma xenografts; conditions: compared to each agent alone
xenograft tumor = conditions: well tolerated doses in mice after oral administration
[6] = adult subjects with advanced/metastatic solid tumors, single agent

Sequence of PLK1 (P53350 whole entry): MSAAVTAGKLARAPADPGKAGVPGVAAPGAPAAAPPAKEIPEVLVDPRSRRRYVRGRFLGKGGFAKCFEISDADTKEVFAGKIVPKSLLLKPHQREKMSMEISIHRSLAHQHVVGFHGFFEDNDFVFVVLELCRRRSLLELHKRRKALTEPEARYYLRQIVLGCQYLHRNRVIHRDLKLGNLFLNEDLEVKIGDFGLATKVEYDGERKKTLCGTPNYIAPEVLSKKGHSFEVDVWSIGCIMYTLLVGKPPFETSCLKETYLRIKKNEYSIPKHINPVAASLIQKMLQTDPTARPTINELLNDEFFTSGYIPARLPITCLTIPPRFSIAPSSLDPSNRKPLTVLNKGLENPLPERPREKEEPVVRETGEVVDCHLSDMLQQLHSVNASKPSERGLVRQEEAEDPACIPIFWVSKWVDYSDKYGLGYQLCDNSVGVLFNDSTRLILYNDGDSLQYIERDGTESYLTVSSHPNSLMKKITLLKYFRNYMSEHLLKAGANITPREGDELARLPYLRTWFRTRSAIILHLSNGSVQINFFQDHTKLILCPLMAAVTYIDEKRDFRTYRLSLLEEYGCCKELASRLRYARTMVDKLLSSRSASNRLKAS

CN1CCN(c2ccc(OC(F)(F)F)c(Nc3ncc4c(n3)-c3c(c(C(N)=O)nn3CCO)CC4)c2)CC1 [Onvansertib, 1-(2-hydroxyethyl)-8-{[5-(4-methylpiperazin-1-yl)-2-(trifluoromethoxy)phenyl]amino}-4,5-dihydro-1H-pyrazolo[4,3-h]quinazoline-3-carboxamide]
effect on cell cycle (cancer cell lines): mitotic cell-cycle arrest followed by apoptosis | anti-tumor activity as single agent [1]: potent anti-tumor activity | combination effect with 5-FU [1]: synergy | combination effect with irinotecan [1]: synergy | half-life (in vivo): about 24 hours | oral bioavailability (rodent and nonrodent species): good oral bioavailability | specificity for PLK1 (PLK1): high specificity | evaluable patients with stable disease [2, 6]: 5 of 16 | recommended phase 2 dose [2, 6]: 24 mg/m^2 | primary dose-limiting toxicities ([2]; patients with advanced/metastatic solid tumors): neutropenia and thrombocytopenia | recovery of hematologic toxicities ([2]; toxicities reversible): ≤ 3 weeks | potency in proliferation assays [3]: low nanomolar activity | survival of animals in combination with cytarabine [4]: prolonged survival | tumor regression in combination with irinotecan [5]: enhanced tumor regression | xenograft tumor growth (xenograft tumor): inhibits xenograft tumor growth
